Laboratory results taken from PubChem BioAssay (NCI).
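Each compound was tested at five concentrations against cells in 96-well plates for 48 hours. At the GI50, growth is halved. TGI marks complete inhibition of growth.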

Key:
Assay in all cases: NCI anticancer screen, dose series, 48 h
SNB-19 CNS = test system: SNB-19 CNS
M14 melanoma = test system: M14 melanoma
NCI-H522 lung = test system: NCI-H522 lung
UACC-257 melanoma = test system: UACC-257 melanoma
SN12C renal = test system: SN12C renal
K-562 leukemia = test system: K-562 leukemia
HCT-15 colon = test system: HCT-15 colon
SR leukemia = test system: SR leukemia
IGROV1 ovarian = test system: IGROV1 ovarian
SK-OV-3 ovarian = test system: SK-OV-3 ovarian

Compound	TGI (SNB-19 CNS) [µM]	TGI (M14 melanoma) [µM]	TGI (NCI-H522 lung) [µM]	TGI (UACC-257 melanoma) [µM]	TGI (SN12C renal) [µM]	TGI (K-562 leukemia) [µM]	TGI (HCT-15 colon) [µM]	TGI (SR leukemia) [µM]	TGI (IGROV1 ovarian) [µM]	TGI (SK-OV-3 ovarian) [µM]	GI50 (SNB-19 CNS) [µM]	GI50 (HCT-15 colon) [µM]	GI50 (M14 melanoma) [µM]	GI50 (SR leukemia) [µM]	GI50 (UACC-257 melanoma) [µM]	GI50 (SN12C renal) [µM]	GI50 (SK-OV-3 ovarian) [µM]	GI50 (K-562 leukemia) [µM]	GI50 (IGROV1 ovarian) [µM]	GI50 (NCI-H522 lung) [µM]
COc1cc2c(cc1OC)C1Cc3ccc(OC)c(OC)c3C[N+]1([O-])CC2 (stereo not given)	> 100	> 100	> 100	> 100	> 100	> 100														
COc1cc(C(C)c2cc3c(cc2OCCNC(=O)COc2cc4c(cc2C(C)c2cc(OC)c(OC)c(OC)c2)OCO4)OCO3)cc(OC)c1OC (stereo not given)	> 100	> 100	92.6	> 100	> 100	> 100	> 100	> 100	> 100											
CCCN(CCC)C(=O)c1nc(N)nc(-c2ccc(OC)cc2)c1-c1ccc(OC)cc1	> 100	> 100	> 100	> 100	> 100	> 100	> 100		> 100	> 100										
O=C1CNC(=O)c2[nH]cnc2N1	> 100	> 100			> 100	> 100	> 100	> 100	> 100	> 100										
CCOc1ccc(NCC2CC/C(=C\c3ccccc3OC)C2=O)cc1 (stereo not given)	30	12.1	4.36	20	19.4	> 27.5	7.82		25.5	31.1										
C/C(CC(=O)Nc1ccccc1C)=N/NS(=O)(=O)c1ccc(C)cc1		> 100	> 100	> 100		> 100			> 100	> 100										
CC(C(=O)c1ccccc1)C1(O)C(=O)Nc2ccc(Cl)cc21 (stereo not given)	> 100	> 100		> 100	> 100		> 100		> 100	> 100										
Clc1ccc2nc(CI)c(CI)nc2c1	> 59.4	> 19.8		16.8	8.62	7.86	12.1	6.79	8.36	> 58	33.2	3.46	3.16	1.68	4.51	2.94	23.1	1.53	2.73	
Cc1cc(C)c(C(=O)O)c(SSc2cc(C)cc(C)c2C(=O)O)c1	> 100		> 100	> 100	> 100	> 100		> 100		> 100										
O=C(Nc1ccccc1-c1nn(CN2CCNCC2)c(=S)n(CN2CCNCC2)c1=O)C(F)(F)F	48.1	31.1		31	46.1	59	31.6		46.5	51.4										
CC(C)=CC(=O)N[C@H]1CC[C@]2(C)C3CC[C@]4(C)C(C(C)N(C)C)=CCC4C3CCC2[C@H]1O (stereo not given in full)	28.1	3.74	20.7	5.59	19.1	4.52	4.2		25.3	24.6	14.8	1.55	1.92		2.39	5.27	12.1	1.58	8.5	5.61
